# Reference: US20030220524A1, “Sulfur containing compounds” (priority 2000, published 2003)
# Read-outs that look alike come from different tables or passages of the source.
# Experiments:
# [1] = system: Aspergillus flavus; assay: Antifungal paper disk test, diameter of clear zone; assay type: cell-based; conditions: for zone of inhibition at 100 µg/disc: read-out: Diameter (mm) of clear Zone A. flavus
# Description: (§1) Sulfur compounds were tested for antifungal activity against pure cultures of Aspergillus niger and Aspergillus flavus supplied by Ward's Natural Science Ltd (St. Catharines, Ontario, Canada). They were maintained on Sabouraud Dextrose Agar.
# (§2) For the test, 6 agar plugs (5 mm diameter) were cut from a 5-8 day old colony and homogenized in distilled, sterilized water (2 ml). A portion of this suspension (0.5 ml) was transferred aseptically to a Petri plate with Sabouraud Dextrose Agar (15 ml) and spread evenly over the entire surface. […] Each test compound was applied to the disks as a solution (50 mg compound/10 ml acetone). Control disks were treated with neat acetone (20 μl). Test plates with fungal homogenates and disks were incubated at 18-20° C. for 2 days. For each test four replicate plates were used. The diameter of the clear zone surrounding the disk was taken as the indicator of antifungal activity.
# [2] = system: Aspergillus niger; assay: Antifungal paper disk test, diameter of clear zone; assay type: cell-based; conditions: for zone of inhibition at 100 µg/disc: read-out: Diameter (mm) of clear Zone A. niger
# Description: as §1, §2
# [3] = system: KK leukemic cell line; assay: Fixed propidium iodide staining, flow cytometry; assay type: cell-based, human; conditions: 48 h
# Description: (§3) Adherent cell lines were plated at 35×10^4 cells/60 cm^2 dish the day before exposure to compound. Suspension cells were seeded at 25×10^4 cells/mL in a 6 well dish (Falcon) the day of exposure to compound. Mononucleated, T-cell depleted normal bone marrow cells were seeded at 50×10^4 cells/mL in a 6 well dish the day of exposure to compound. Cells were exposed to solvent control or approximate MTT50 and MTT30 concentrations of the compound. After 48 h of exposure to the compound, cells were harvested, fixed in 80% ethanol for 1 h on ice and labeled with 50 μg/mL propidium iodide (Sigma). Approximately 10^6 cells were analyzed using a XL-MCL flow cytometer (Coulter Corporation, Miami, Fla.) and a FACScalibar cytometer (Becton Dickinson, San Jose, Calif.). Profiles shown are a representative.
# as §3, with “cm2” for “cm^2”, “concentrations.” for “concentrations of the compound.”, “representative. Cell viability counts and Pi staining were performed as previously described (Dimitroulakos, J, Nohynek, D, Backway, K L, Hedley, D W, Yeger, H, Freedman, M H, Minden, M D and Penn, L Z: Increased sensitivity of acute myeloid leukemias to lovastatin-induced apoptosis: A potential therapeutic approach. Blood 93: 1308-18, 1999).” for “representative.”
# [4] = system: WI38 non-transformed diploid fibroblasts; assay: Fixed propidium iodide staining, flow cytometry; assay type: cell-based, human; conditions: 48 h
# Description: as §3
# as §3, with “cm2” for “cm^2”, “concentrations.” for “concentrations of the compound.”, “representative. Cell viability counts and Pi staining were performed as previously described (Dimitroulakos, J, Nohynek, D, Backway, K L, Hedley, D W, Yeger, H, Freedman, M H, Minden, M D and Penn, L Z: Increased sensitivity of acute myeloid leukemias to lovastatin-induced apoptosis: A potential therapeutic approach. Blood 93: 1308-18, 1999).” for “representative.”
# [5] = system: leukemic cells; assay: Trypan blue exclusion in combination with MTT activity; assay type: cell-based, human; conditions: in words
# Description: Adherent cells were seeded at 67×10^3 cells/mL in a 96 well plate (Falcon, Mississauga, Ontario) the day prior to exposure to compound. Suspension cells were seeded at 27×10^4 cells/mL in a 96 well plate the day of exposure to compound. Mononucleated, T-cell depleted normal bone marrow cells were seeded at 67×10^4 cells/mL in a 96 well plate the day of exposure to compound. Compounds and solvent control were added to cells and assayed in triplicate or sextuplet. Following 48 h of incubation at 37° C. with 5% CO2, 40 μL of a 5 mg/mL solution of 3-[4,5-dimethylthiazol-2-yl]-2,5-diphenyltetrazolium bromide (MTT) substrate (Sigma) in Dulbecco's phosphate-buffered saline (D-PBS) was added. After 4 h of incubation at 37° C. with 5% CO2, the resulting violet formazan precipitate was solubilized by the addition of 80 μL of a 0.01 M HCI, 10% sodium dodecyl sulfate (SDS; Sigma) solution overnight at 37° C. with 5% CO2. The plates were then analyzed using the BioRad Benchmark Microplate Reader (BioRad Laboratories, Hercules, Calif.) at 570 nm to determine the optical density of the samples. MTT data was analyzed using Prism 3.0 (GraphPad Software, Inc., San Diego, Calif.) by the Chou-Talalay method. MTT graphs shown are a representative experiment.
# Leukemic cells were seeded in a 24-well plate (Nunc, Naperville, Ill.) at 25×10^4 cells/mL. Cells were then exposed in triplicate to solvent control or the approximate MTT50 concentration of compounds B, C, F, G or H at 10 μg/mL, or I at 5 μg/mL. The final solvent volume was 2.4 μL/mL of media for trypan blue exclusion assay. The compound was replenished after 48 h of treatment. Cell counts were evaluated using a 1:1 dilution of cell suspension in trypan blue (Gibco-BRL, Mississauga, Ontario, Canada). Viable and nonviable cells were counted using a hemocytometer. Cells which excluded trypan blue were counted as viable whereas stained cells were counted as nonviable. Trypan blue exclusion graphs shown are a representative experiment.
# Leukemic cells were seeded in a 24-well plate (Nunc, Naperville, Ill.) at 25×10^4 cells/mL. Cells were then exposed in triplicate to solvent control or the approximate MTT50 concentration of compounds F (10 μg/mL), G (10 μg/mL) or 1 (5 μg/mL). The final solvent volume was 2.4 μL/mL of media for trypan blue exclusion assay. The compound was replenished after 48 h of treatment. Cell counts were evaluated using a 1:1 dilution of cell suspension in trypan blue (Gibco-BRL, Mississauga, Ontario, Canada). Viable and nonviable cells were counted using a hemocytometer. Cells which excluded trypan blue were counted as viable whereas stained cells were counted as nonviable. Trypan blue exclusion graphs shown are a representative experiment.
# [6] = system: Aspergillus niger and Aspergillus flavus; assay: Antifungal activity; assay type: cell-based; conditions: in words; dose not given
# Description: as §1
# For the test, 6 agar plugs (5 mm diameter) were cut from a 5-8 day old colony and homogenized in distilled, sterilized water (2 ml). A portion of this suspension (0.5 ml) was transferred aseptically to a Petri plate with Sabouraud Dextrose Agar (15 ml) and spread evenly over the entire surface. Each plate was supplied with four evenly spaced paper disks (7 mm, Whatman Number 1 filter paper) containing the test compound (0, 25, 50 and 100 μg respectively). Each test compound was applied to the disks as a solution (50 mg compound/10 ml acetone). Control disks were treated with neat acetone (20 μl). Test plates with fungal homogenates and disks were incubated at 18-20° C. for 2 days. For each test four replicate plates were used. The diameter of the clear zone surrounding the disk was taken as the indicator of antifungal activity.
# [7] = Aspergillus flavus, 100 μg/disk, acetone
# [8] = Aspergillus niger, 100 μg/disk, acetone
# [9] = dose 50 uM (229 ug/mL) as printed
structure (smiles),measurement,setting,value
"CSCSSC [Compound N, 2,3,5-trithiahexane]",zone of inhibition at 100 µg/disc,[1]; Aspergillus flavus,0 mm
same,zone of inhibition at 100 µg/disc,[2]; Aspergillus niger,0 mm
same,% G2 increase (Fixed PI),[3]; dose 50 uM,+4%
same,% pre-G1 (Fixed PI),[3]; dose 50 uM,13%
same,% G2 increase (Fixed PI),[3]; dose 150 uM,+5%
same,% pre-G1 (Fixed PI),[3]; dose 150 uM,10%
same,% G2 increase (Fixed PI),[4]; dose 50 uM,+7%
same,% pre-G1 (Fixed PI),[4]; dose 50 uM,2%
same,% G2 increase (Fixed PI),[4]; dose 150 uM,+25%
same,% pre-G1 (Fixed PI),[4]; dose 150 uM,4%
"CSSCC(=O)c1ccccc1 [Compound P, phenacyl methyl disulphide]",% pre-G1 (Fixed PI),[4]; dose 50 uM,2%
same,% pre-G1 (Fixed PI),[4]; dose 150 uM,52%
"CSSCS(=O)(=O)c1ccc(C)cc1 [Compound C, α-p-toluenesulfonyl dimethyl disulphide]",Diameter (mm) of clear Zone A. flavus,"[1]; 25 μg/disk, acetone",8.0 mm
same,Diameter (mm) of clear Zone A. niger,"[2]; 25 μg/disk, acetone",10.9 mm
same,% pre-G1 (Fixed PI),[3]; dose 40.3 uM (20 ug/mL),20.6%
same,Cytotoxicity to the leukemic cells (trypan blue exclusion with MTT activity),[5],cytotoxic to the leukemic cells in a dose-dependent manner
same,Antifungal activity,[6],possess antifungal and anti-mammalian cell activity
CSCSCS(C)(=O)=O [B],% pre-G1 (Fixed PI),[3]; dose 107 uM (20 ug/mL),1.1%
same,Antifungal activity,[6],do not possess antiproliferative activity on either fungal or mammalian cells
"COC(=O)CSSC [H, methyl 3,4-dithiopentanoate]",Diameter (mm) of clear Zone A. flavus,"[1]; 100 μg/disk, acetone",0 mm
same,Diameter (mm) of clear Zone A. niger,"[2]; 100 μg/disk, acetone",0 mm
same,% pre-G1 (Fixed PI),[3]; dose 133.4 uM (20 ug/mL),5.9%
same,% pre-G1 (Fixed PI),[4]; dose 985 uM (150 ug/mL),0.7%
same,Cytotoxicity to the leukemic cells (trypan blue exclusion with MTT activity),[5],cytotoxic to the leukemic cells in a dose-dependent manner
same,Antifungal activity,[6],do not possess antifungal activity
"CSSCOC(C)=O [I, 2,3-dithiabutyl acetate]",zone of inhibition at 100 µg/disc,[1]; [7],2.3 mm
same,zone of inhibition at 100 µg/disc,[2]; [8],2.3 mm
same,% pre-G1 (Fixed PI),[3]; dose 65.7 uM (10 ug/mL),48.4%
same,Cytotoxicity to the leukemic cells (trypan blue exclusion with MTT activity),[5],cytotoxic to the leukemic cells in a dose-dependent manner
same,Antifungal activity,[6],possess antifungal and anti-mammalian cell activity
"CS(=O)(=O)CSCS(C)(=O)=O [G, 2,4,6-trithiaheptane 2,2,6,6-tetraoxide]",zone of inhibition at 100 µg/disc,[1]; [7],0 mm
same,zone of inhibition at 100 µg/disc,[2]; [8],0 mm
same,% pre-G1 (Fixed PI),[3]; dose 91.6 uM (20 ug/mL),3.8%
same,Antifungal activity,[6],do not possess antiproliferative activity on either fungal or mammalian cells
"c1ccc(SSc2ccccc2)cc1 [D, diphenyl disulphide]",zone of inhibition at 100 µg/disc,[1]; [7],0 mm
same,zone of inhibition at 100 µg/disc,[2]; [8],0 mm
same,% pre-G1 (Fixed PI),[3]; dose 91.6 uM (20 ug/mL),33.9%
same,Cytotoxicity to the leukemic cells (trypan blue exclusion with MTT activity),[5],cytotoxic to the leukemic cells in a dose-dependent manner
same,Antifungal activity,[6],do not possess antifungal activity
"CS(=O)(=O)CSSc1ccccc1 [E, 5-phenyl-2,4,5-trithiapentane 2,2-dioxide]",zone of inhibition at 25 µg/disc,"[1]; Aspergillus flavus, 25 μg/disk, acetone",1.8 mm
same,zone of inhibition at 25 µg/disc,"[2]; Aspergillus niger, 25 μg/disk, acetone",0.8 mm
same,% pre-G1 (Fixed PI),[3]; dose 85.3 uM (20 ug/mL),34.7%
same,Cytotoxicity to the leukemic cells (trypan blue exclusion with MTT activity),[5],cytotoxic to the leukemic cells in a dose-dependent manner
same,Antifungal activity,[6],possess antifungal and anti-mammalian cell activity
"CSSc1ccc([N+](=O)[O-])cc1 [M, methyl p-nitrophenyl disulphide]",zone of inhibition at 10 µg/disc,"[1]; Aspergillus flavus, 10 μg/disk, acetone",4 mm
same,Diameter (mm) of clear Zone A. niger,"[2]; 10 μg/disk, acetone, listed as p-CH3SS(C6H4)NO2",3.8 mm
same,zone of inhibition at 10 µg/disc,"[2]; Aspergillus niger, 10 μg/disk, acetone",3.9 mm
same,% pre-G1 (Fixed PI),[4]; dose 40 uM,16%
same,% pre-G1 (Fixed PI),[4]; dose 120 uM as printed,119%
"CS(C)(=O)=O [Compound A, dimethyl sulfone]",Diameter (mm) of clear Zone A. flavus,"[1]; 100 μg/disk, acetone",0 mm
same,Diameter (mm) of clear Zone A. niger,"[2]; 100 μg/disk, acetone",0 mm
same,% pre-G1 (Fixed PI),[3]; dose 212 uM (20 ug/mL),1.1%
same,Antifungal activity,[6],do not possess antiproliferative activity on either fungal or mammalian cells
"CCC(=O)OCSSc1ccccc1 [Compound Q, 1-phenyl-1,2-dithiapropyl propionate]",zone of inhibition at 2.5 µg/disc,"[1]; Aspergillus flavus, 2.5 μg/disk, acetone",2.3 mm
same,zone of inhibition at 2.5 µg/disc,"[2]; Aspergillus niger, 2.5 μg/disk, acetone",3.5 mm
same,% pre-G1 (Fixed PI),[3]; dose 20 uM,15%
same,% G2 increase (Fixed PI),[3]; dose 40 uM,−4%
same,% pre-G1 (Fixed PI),[3]; dose 40 uM,43%
same,% G2 increase (Fixed PI),[4]; dose 20 uM,+3%
same,% pre-G1 (Fixed PI),[4]; dose 20 uM,1%
same,% G2 increase (Fixed PI),[4]; dose 40 uM,+10%
same,% pre-G1 (Fixed PI),[4]; dose 40 uM,1%
same,Antifungal activity,[6],potent antifungal compound
"CSSCCS(C)(=O)=O [F, 2,3,6-trithiaheptane 6,6,-dioxide]",Diameter (mm) of clear Zone A. flavus,"[1]; 100 μg/disk, acetone",0 mm
same,Diameter (mm) of clear Zone A. niger,"[2]; 100 μg/disk, acetone",0 mm
same,% pre-G1 (Fixed PI),[3]; dose 91.6 uM (20 ug/mL),3.8%
same,% G2/M (Fixed PI),[4]; [9],17.8%
same,% pre-G1 (Fixed PI),[4]; [9],0.1%
same,Cytotoxicity to the leukemic cells (trypan blue exclusion with MTT activity),[5],cytotoxic to the leukemic cells in a dose-dependent manner
same,Antifungal activity,[6],do not possess antifungal activity
